# Columns and labels:
# TC83 in U87MG = assay type: cell-based, Venezuelan Equine Encephalitis (TC83) virus
# TC83 in BE3M27 = assay type: cell-based, Venezuelan Equine Encephalitis (TC83) virus
# MCF-7 = experiment: MTT assay
# [1] = test system: Zika DAKAR, Senegal in HFF; experiment: Viral inhibition; assay type: cell-based, Zika virus
# PANC-1 tumors = settings: PANC-1 xenograft
# MDA-MB-231 cells = experiment: Cell penetration by immunofluorescence/confocal microscopy; assay type: cell-based, human; settings: MDA-MB-231 cells, fluorescence microscopy
# ENBOV (Ebola) in HFF = assay type: cell-based, Ebola virus; settings: HFF, ENBOV (Ebola)
# [2] = target: Human KRAS Wildtype protein (Homo sapiens, UniProt P01116); experiment: Biacore 3000 binding affinity
# [3] = test system: phosphorylated ERK1/2 in KRAS mutant cancer cells; experiment: Western blot for phosphorylated ERK1/2; settings: MDA-MD-231 and PANC-1, 100 μg/ml for 72 hours
# SJSA = experiment: MTT assay
# [4] = rats
# PANC-1 = experiment: MTT assay
# [5] = test system: tSTAT3, pSTAT3 and PD-L1 in MDA-MB-231 cells; experiment: Immunoblot (slot blot) of tSTAT3, pSTAT3 and PD-L1; assay type: cell-based, human; settings: MDA-MB-231, 3, 6 and 24 hours, β-actin normalized, 50-100 ug/ml
# [6] = test system: VEGF production by retinal epithelial cells (ARPE-19)
# [7] = test system: STAT3 in MDA-MB-231 cells; experiment: Nuclear tSTAT3/pSTAT3 staining quantified by IFA/confocal; assay type: cell-based, human; settings: 6-hour treatment, two-dimensional images, co-occurrence with DAPI
# Procedure: Immunofluorescence and Immunohistochemical Staining: Standard procedures were used for immunohistochemistry and immunofluorescence assay (IFA) staining. Primary antibodies for IF were: Anti-t-STAT3: (Cell Signaling Technology), Anti-p-STAT3: (Cell Signaling Technology), Anti-PD-L1: (Cell Signaling Technology), Anti-VHH Antibody: (Rockland), Alexa Fluor 488-Anti-rabbitIgG: (AFanti-rabIgG, Jackson ImmunoResearch). The blocking solution, 1° and 2° antibody diluent were 1% BP: (1% BSA in PBS). All cell incubations were at 37° C. in a 5% CO2 incubator in media. 4,500 cells/well were seeded in chamber slides allowed to adhere overnight.
# IFA: Wells were blocked for >30 minutes, blocking agent removed and primary antibodies were added at the following dilutions prior to overnight incubation at 5° C.: anti-VHH=1:500, anti-t-STAT3=1:300, anti-P-STAT3=1:125, anti-PD-L1=1:300. Wells were washed with PBS and incubated with AFanti-rabIgG (1:300) for >1 hour prior to washing with PBS, coverslipped and examined by fluorescent microscopy. […] Traditional fluorescence microscopy was performed using the Nikon 80i microscope and the appropriate wavelength filter. […]
# Confocal microscopy: The confocal images were obtained using the Leica TCS SP8 confocal microscope. Images were quantified using Fiji software. […]
# HT-1080 = experiment: MTT assay
substance,measurement,setting,value
"SBT-100: 15 kDa camelid single domain antibody (VHH), SEQ ID NO: 1, binds both STAT3 and KRAS",Comment,TC83 in U87MG,Inhibits Venezuelan Equine
same,EC50,TC83 in U87MG,2.53 µM
same,Comment,TC83 in BE3M27,Inhibits Venezuelan Equine
same,EC50,TC83 in BE3M27,5.94 µM
same,IC50,MCF-7; MCF-7,0.99 µM
same,% Inhibition in 3 days with SBT-100 (SEQ ID NO: 1) ug/ml or 6.7 uM),"MCF-7; MCF-7, 3 days, 6.7 uM",93% (P < 0.001)
same,Comment,[1],Inhibits Zika virus replication
same,EC50,[1],6.26 µM
same,Deaths and weight loss,PANC-1 tumors,No treated mice died or had any weight loss
same,"% Inhibition of Control, Day 12","PANC-1 tumors; intraperitoneal for 14 days, Day 12",20.7%
same,"% Inhibition of Control, Day 15","PANC-1 tumors; intraperitoneal for 14 days, Day 15",27.29%
same,"% Inhibition of Control, Day 19","PANC-1 tumors; intraperitoneal for 14 days, Day 19",18.37%
same,"% Inhibition of Control, Day 22","PANC-1 tumors; intraperitoneal for 14 days, Day 22 (end of the study)",19.17%
same,Intracellular staining/localization of VHH,MDA-MB-231 cells,exhibited intracellular localization
same,Comment,ENBOV (Ebola) in HFF,Inhibits Ebola virus replication
same,EC50,ENBOV (Ebola) in HFF,2.56 µM
same,Kd,[2],0.0042 µM
same,Downstream phosphorylation of ERK (PERK),[3],inhibited
same,IC50,SJSA,3.39 µM
same,% Inhibition in 3 days with SBT-100 (SEQ ID NO: 1) ug/ml or 6.7 uM),"SJSA; 3 days, 6.7 uM",83% (P < 0.001)
same,Serum half-life,[4],1 h
same,IC50,PANC-1; PANC-1,0.38 µM
same,% Inhibition in 3 days with SBT-100 (SEQ ID NO: 1) ug/ml or 6.7 uM),"PANC-1; PANC-1, 3 days, 6.7 uM",85% (P < 0.001)
same,"Levels of tSTAT3, pSTAT3 and PD-L1",[5],reduced levels
same,Cell toxicity,[6],No cell toxicity was observed
same,Suppression of VEGF protein production,"[6]; 100 μg/ml, 12, 24, and 48-hour time points",> 99%
same,Original pSTAT3 staining remaining in the nucleus,[7],70%
same,Original tSTAT3 staining remaining in the nucleus,[7],41%
same,Time to cross the BBB,"mouse brain, staining in neurons and glial cells",15 min
same,Crossing of the blood brain barrier by IHC,"once IP 5 mg/kg, fifteen minutes, mice with MDA-MB-231 tumors",crosses the blood brain barrier
same,IC50,HT-1080; HT-1080,2.13 µM
same,% Inhibition in 3 days with SBT-100 (SEQ ID NO: 1) ug/ml or 6.7 uM),"HT-1080; HT-1080, 3 days, 6.7 uM",86% (P < 0.001)

# Source: patent publication US20260184773A1, “THERAPEUTIC SINGLE DOMAIN ANTIBODY” (priority 2021, published 2026)
